From ChEMBL document CHEMBL1201862, “PubChem BioAssay data set” (2004)
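Following 48 hours of exposure in 96-well plates, responses at five concentrations were used to interpolate endpoints linearly. GI50: concentration for 50% inhibition of growth.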 The source made the active and inactive calls. Rule as the data show it: active = GI50 up to about 1.1 µM and inactive = higher.

Key:
Experiment in all cases: NCI anticancer screen, dose series, 48 h
IGROV-1 = test system: IGROV-1
OVCAR-3 = test system: OVCAR-3
HCT-116 = test system: HCT-116
A549 = test system: A549
HL-60 = test system: HL-60
SF-539 = test system: SF-539
SNB-19 = test system: SNB-19
786-0 = test system: 786-0
UACC-62 = test system: UACC-62
LOX IMVI = test system: LOX IMVI
CAKI-1 = test system: CAKI-1
UO-31 = test system: UO-31
OVCAR-5 = test system: OVCAR-5
KM12 = test system: KM12
Malme-3M = test system: Malme-3M
M14 = test system: M14
SF-295 = test system: SF-295
COLO 205 = test system: COLO 205
HT-29 = test system: HT-29

Measured: GI50

N#C/C(=C\c1cccc(O)c1)C(N)=O
inactive: IGROV-1 > 100 µM | OVCAR-3 > 100 µM | HCT-116 > 100 µM | A549 > 100 µM | HL-60 20.9 µM | SF-539 > 100 µM | SNB-19 > 100 µM | 786-0 > 100 µM | UACC-62 > 100 µM | LOX IMVI > 100 µM | CAKI-1 > 100 µM | UO-31 > 100 µM | OVCAR-5 > 100 µM | KM12 > 100 µM | Malme-3M > 100 µM | M14 > 100 µM | SF-295 > 100 µM | COLO 205 > 100 µM | HT-29 > 100 µM

COC(=O)C1=Cc2c(OC)cc(OC)c(OC)c2[C@H](c2cc(OC)c(OC)cc2OC)C1C(=O)OC (some centres not stated)
inactive: IGROV-1 > 100 µM | OVCAR-3 > 100 µM | HCT-116 > 100 µM | A549 > 100 µM | HL-60 28.8 µM | SF-539 54.7 µM | SNB-19 > 100 µM | 786-0 > 100 µM | UACC-62 > 100 µM | LOX IMVI > 100 µM | CAKI-1 > 100 µM | UO-31 > 100 µM | OVCAR-5 > 100 µM | KM12 > 100 µM | Malme-3M > 100 µM | M14 > 100 µM | SF-295 88.5 µM | COLO 205 > 100 µM | HT-29 > 100 µM

CC(=O)O[C@H]1CCC2[C@@H]3CCC4=C(O)C(=O)C(C#N)C[C@]4(C)C3CC[C@@]21C (some centres not stated)
inactive: IGROV-1 26.2 µM | OVCAR-3 38.6 µM | HCT-116 29.5 µM | A549 36.7 µM | HL-60 20 µM | SF-539 50.8 µM | SNB-19 45.1 µM | 786-0 24.4 µM | UACC-62 15.5 µM | LOX IMVI 18.9 µM | UO-31 13.7 µM | OVCAR-5 75.9 µM | KM12 35.7 µM | Malme-3M 36.1 µM | M14 34 µM | SF-295 45.9 µM | COLO 205 28.4 µM | HT-29 42.5 µM

Cc1c(CCO)c(O)n2c(nc3ccccc32)c1C#N
inactive: IGROV-1 68.4 µM | OVCAR-3 92.5 µM | HCT-116 41.3 µM | A549 > 100 µM | HL-60 10 µM | SF-539 > 100 µM | SNB-19 30.3 µM | 786-0 66.4 µM | UACC-62 > 100 µM | LOX IMVI 68.7 µM | CAKI-1 59 µM | UO-31 65.8 µM | OVCAR-5 > 100 µM | KM12 > 100 µM | Malme-3M > 100 µM | M14 84.1 µM | SF-295 > 100 µM | COLO 205 > 100 µM | HT-29 44.3 µM

COc1ccc(N2C(=O)[C@@H]3[C@H](C2=O)c2[nH]c4ccccc4c2C2CCC(C(C)(C)C)C[C@@H]23)cc1 (some centres not stated)
inactive: IGROV-1 34.1 µM | OVCAR-3 21.5 µM | HCT-116 30.5 µM | A549 24.2 µM | HL-60 > 100 µM | SF-539 22.9 µM | SNB-19 22.1 µM | 786-0 14.9 µM | UACC-62 19.1 µM | LOX IMVI 22.8 µM | CAKI-1 27.7 µM | UO-31 > 47.4 µM | OVCAR-5 > 100 µM | KM12 38.7 µM | Malme-3M 30.4 µM | M14 29.2 µM | SF-295 12.3 µM | COLO 205 24 µM | HT-29 29.2 µM

O=C1/C(=C\c2cccc(Oc3ccccc3)c2)SC(c2ccccc2)N1c1cc(Cl)ccc1Cl (configuration not stated)
inactive: IGROV-1 26.3 µM | OVCAR-3 24.8 µM | HCT-116 17.2 µM | A549 51.5 µM | HL-60 15.1 µM | SF-539 24.3 µM | SNB-19 43.4 µM | 786-0 27 µM | UACC-62 31.4 µM | LOX IMVI 16.8 µM | CAKI-1 69.2 µM | UO-31 37.2 µM | OVCAR-5 59 µM | KM12 18.2 µM | Malme-3M 28.2 µM | M14 30.1 µM | SF-295 24.2 µM | COLO 205 53.5 µM | HT-29 30.8 µM

CC1=C(C(=O)O)N2C(=O)[C@@H](NC(=O)C(c3ccc(O)cc3)N3CSC(=S)N(C(C)C)C3)C2SC1 (some centres not stated)
inactive: IGROV-1 > 100 µM | OVCAR-3 99.1 µM | HCT-116 > 100 µM | A549 > 100 µM | HL-60 > 100 µM | SF-539 > 100 µM | SNB-19 > 100 µM | 786-0 > 100 µM | UACC-62 > 100 µM | LOX IMVI > 100 µM | UO-31 > 100 µM | OVCAR-5 > 100 µM | KM12 > 100 µM | Malme-3M > 100 µM | M14 > 100 µM | SF-295 > 100 µM | COLO 205 97.7 µM | HT-29 > 100 µM

CCOC(=O)CCc1c(C)c2c(OC)cc(OC)cc2oc1=O
inactive: OVCAR-3 > 100 µM | HCT-116 > 100 µM | A549 > 100 µM | HL-60 88.3 µM | SF-539 > 100 µM | SNB-19 > 100 µM | 786-0 34.1 µM | LOX IMVI > 100 µM | CAKI-1 72.3 µM | UO-31 65.9 µM | OVCAR-5 59.3 µM | KM12 > 100 µM | Malme-3M 51.3 µM | M14 > 100 µM | SF-295 > 100 µM | COLO 205 > 100 µM | HT-29 91 µM

CC(=O)/C(=C/NC(=S)Nc1ccc(Cl)c(Cl)c1)C(=O)Nc1ccccc1C
inactive: IGROV-1 27.4 µM | OVCAR-3 24.3 µM | HCT-116 33.7 µM | A549 34.1 µM | HL-60 17.1 µM | SF-539 14.5 µM | SNB-19 26.8 µM | 786-0 35 µM | UACC-62 19 µM | LOX IMVI 34 µM | CAKI-1 22.3 µM | UO-31 22.3 µM | OVCAR-5 32 µM | KM12 24.9 µM | M14 37 µM | SF-295 32 µM | COLO 205 28.2 µM | HT-29 22.3 µM

CC(C)(C)OC(=O)CC(NC(=O)OC(C)(C)C)C(=O)NC(C(=O)O)C(O)c1ccccc1 (configuration not stated)
inactive: IGROV-1 > 100 µM | OVCAR-3 > 100 µM | HCT-116 79.1 µM | A549 > 100 µM | SF-539 > 100 µM | SNB-19 > 100 µM | 786-0 > 100 µM | UACC-62 37.5 µM | LOX IMVI > 100 µM | CAKI-1 > 100 µM | UO-31 > 100 µM | OVCAR-5 > 100 µM | KM12 97.7 µM | Malme-3M 90.4 µM | M14 > 100 µM | SF-295 > 100 µM | COLO 205 > 100 µM | HT-29 75.3 µM

COC(=O)CCC(NC(=S)N/N=C(\C)c1nccs1)C(=O)OC (configuration not stated)
inactive: IGROV-1 73.5 µM | OVCAR-3 31.3 µM | HCT-116 34.4 µM | A549 74.8 µM | HL-60 10 µM | SF-539 > 100 µM | SNB-19 > 100 µM | 786-0 69.3 µM | UACC-62 28.1 µM | LOX IMVI 52 µM | UO-31 49.3 µM | OVCAR-5 53 µM | KM12 > 100 µM | Malme-3M > 100 µM | M14 41.8 µM | SF-295 87.7 µM | COLO 205 11.3 µM | HT-29 73.5 µM
